# Experimental data reported in PubChem BioAssay (NCI).
#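 The concentration for 50% growth inhibition is given as GI50. TGI marks complete inhibition of growth.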
# How the values were obtained:
# Experiment in all cases: NCI-60 cell line screen, 384-well format
# MDA-MB-435 melanoma = test system: MDA-MB-435 melanoma
# HT29 colon = test system: HT29 colon
# A549 NSCLC = test system: A549 NSCLC
# NCI-H226 lung = test system: NCI-H226 lung
# CAKI-1 renal = test system: CAKI-1 renal
# LOX IMVI melanoma = test system: LOX IMVI melanoma
# U251 glioblastoma = test system: U251 glioblastoma
# PC-3 prostate = test system: PC-3 prostate
# MALME-3M melanoma = test system: MALME-3M melanoma
# SNB-19 CNS = test system: SNB-19 CNS
# OVCAR-3 ovarian = test system: OVCAR-3 ovarian
# 786-0 renal = test system: 786-0 renal
# IGROV1 ovarian = test system: IGROV1 ovarian
# SF-539 CNS = test system: SF-539 CNS
# TK-10 renal = test system: TK-10 renal
# SK-MEL-5 melanoma = test system: SK-MEL-5 melanoma
# HCT-116 colon = test system: HCT-116 colon
# ACHN renal = test system: ACHN renal
# NCI/ADR-RES ovarian = test system: NCI/ADR-RES ovarian
# MCF7 breast = test system: MCF7 breast
# K-562 leukemia = test system: K-562 leukemia
# A498 renal = test system: A498 renal
# HOP-92 NSCLC = test system: HOP-92 NSCLC
# HS 578T breast = test system: HS 578T breast
# BT-549 breast = test system: BT-549 breast
# OVCAR-5 ovarian = test system: OVCAR-5 ovarian
# OVCAR-4 ovarian = test system: OVCAR-4 ovarian
# SW-620 colon = test system: SW-620 colon
# CCRF-CEM leukemia = test system: CCRF-CEM leukemia
# UO-31 renal = test system: UO-31 renal
# NCI-H460 NSCLC = test system: NCI-H460 NSCLC
# EKVX NSCLC = test system: EKVX NSCLC
# MOLT-4 leukemia = test system: MOLT-4 leukemia
# SN12C renal = test system: SN12C renal
# SF-268 CNS = test system: SF-268 CNS
# HL-60(TB) leukemia = test system: HL-60(TB) leukemia
# HOP-62 NSCLC = test system: HOP-62 NSCLC
# RPMI-8226 leukemia = test system: RPMI-8226 leukemia
# HCT-15 colon = test system: HCT-15 colon
# SK-OV-3 ovarian = test system: SK-OV-3 ovarian
# SNB-75 CNS = test system: SNB-75 CNS
# T-47D breast = test system: T-47D breast
# NCI-H522 lung = test system: NCI-H522 lung
# OVCAR-8 ovarian = test system: OVCAR-8 ovarian
# MDA-MB-468 breast = test system: MDA-MB-468 breast
# NCI-H23 lung = test system: NCI-H23 lung
# SF-295 CNS = test system: SF-295 CNS
# HCC-2998 colon = test system: HCC-2998 colon
# RXF 393 renal = test system: RXF 393 renal
structure (smiles),measurement,setting,value
COc1cc(C(=O)NC2CCN(C)CC2)c(F)cc1Nc1ncc2c(n1)N(C1CCCC1)CC(F)(F)C(=O)N2C,GI50,MDA-MB-435 melanoma,< 10 nM
same,TGI,MDA-MB-435 melanoma,10.8 nM
same,GI50,HT29 colon,< 10 nM
same,TGI,HT29 colon,19.3 nM
same,GI50,A549 NSCLC,< 10 nM
same,TGI,A549 NSCLC,410 nM
same,GI50,NCI-H226 lung,1330 nM
same,TGI,NCI-H226 lung,6330 nM
same,GI50,CAKI-1 renal,93.2 nM
same,TGI,CAKI-1 renal,10500 nM
same,GI50,LOX IMVI melanoma,16.7 nM
same,TGI,LOX IMVI melanoma,1150 nM
same,GI50,U251 glioblastoma,< 10 nM
same,TGI,U251 glioblastoma,2360 nM
same,GI50,PC-3 prostate,33.4 nM
same,TGI,PC-3 prostate,13100 nM
same,GI50,MALME-3M melanoma,26.5 nM
same,TGI,MALME-3M melanoma,1530 nM
same,GI50,SNB-19 CNS,17.5 nM
same,TGI,SNB-19 CNS,5750 nM
same,GI50,OVCAR-3 ovarian,< 10 nM
same,TGI,OVCAR-3 ovarian,14.1 nM
same,GI50,786-0 renal,30.8 nM
same,TGI,786-0 renal,1430 nM
same,GI50,IGROV1 ovarian,29.8 nM
same,TGI,IGROV1 ovarian,2820 nM
same,GI50,SF-539 CNS,20.5 nM
same,TGI,SF-539 CNS,1060 nM
same,GI50,TK-10 renal,1380 nM
same,TGI,TK-10 renal,5990 nM
same,GI50,SK-MEL-5 melanoma,< 10 nM
same,TGI,SK-MEL-5 melanoma,42.8 nM
same,GI50,HCT-116 colon,< 10 nM
same,TGI,HCT-116 colon,1340 nM
same,GI50,ACHN renal,83.1 nM
same,TGI,ACHN renal,11300 nM
same,GI50,NCI/ADR-RES ovarian,50.9 nM
same,TGI,NCI/ADR-RES ovarian,206 nM
same,GI50,MCF7 breast,< 10 nM
same,TGI,MCF7 breast,1510 nM
same,GI50,K-562 leukemia,< 10 nM
same,TGI,K-562 leukemia,53.7 nM
same,GI50,A498 renal,99.5 nM
same,TGI,A498 renal,10700 nM
same,GI50,HOP-92 NSCLC,41.3 nM
same,TGI,HOP-92 NSCLC,1400 nM
same,GI50,HS 578T breast,13.5 nM
same,TGI,HS 578T breast,42.1 nM
same,GI50,BT-549 breast,30.9 nM
same,TGI,BT-549 breast,242 nM
same,GI50,OVCAR-5 ovarian,14 nM
same,TGI,OVCAR-5 ovarian,1730 nM
same,GI50,OVCAR-4 ovarian,1630 nM
same,TGI,OVCAR-4 ovarian,5880 nM
same,GI50,SW-620 colon,< 10 nM
same,TGI,SW-620 colon,28.4 nM
same,GI50,CCRF-CEM leukemia,< 10 nM
same,TGI,CCRF-CEM leukemia,< 10 nM
same,GI50,UO-31 renal,52.1 nM
same,TGI,UO-31 renal,2030 nM
same,GI50,NCI-H460 NSCLC,< 10 nM
same,TGI,NCI-H460 NSCLC,14.7 nM
same,GI50,EKVX NSCLC,91.7 nM
same,TGI,EKVX NSCLC,6980 nM
same,GI50,MOLT-4 leukemia,< 10 nM
same,TGI,MOLT-4 leukemia,< 10 nM
same,GI50,SN12C renal,246 nM
same,TGI,SN12C renal,3440 nM
same,GI50,SF-268 CNS,< 10 nM
same,TGI,SF-268 CNS,< 10 nM
same,GI50,HL-60(TB) leukemia,< 10 nM
same,TGI,HL-60(TB) leukemia,< 10 nM
same,GI50,HOP-62 NSCLC,< 10 nM
same,TGI,HOP-62 NSCLC,2900 nM
same,GI50,RPMI-8226 leukemia,16.3 nM
same,TGI,RPMI-8226 leukemia,31.5 nM
same,GI50,HCT-15 colon,21.4 nM
same,TGI,HCT-15 colon,160 nM
same,GI50,SK-OV-3 ovarian,16.7 nM
same,TGI,SK-OV-3 ovarian,1160 nM
same,GI50,SNB-75 CNS,47.2 nM
same,TGI,SNB-75 CNS,3280 nM
same,GI50,T-47D breast,26.1 nM
same,TGI,T-47D breast,1270 nM
same,GI50,NCI-H522 lung,< 10 nM
same,TGI,NCI-H522 lung,< 10 nM
same,GI50,OVCAR-8 ovarian,10.4 nM
same,TGI,OVCAR-8 ovarian,26.8 nM
same,GI50,MDA-MB-468 breast,< 10 nM
same,TGI,MDA-MB-468 breast,< 10 nM
same,GI50,NCI-H23 lung,< 10 nM
same,TGI,NCI-H23 lung,16.7 nM
same,GI50,SF-295 CNS,30.8 nM
same,TGI,SF-295 CNS,272 nM
same,GI50,HCC-2998 colon,13.5 nM
same,TGI,HCC-2998 colon,51.5 nM
same,GI50,RXF 393 renal,< 10 nM
same,TGI,RXF 393 renal,27.4 nM
